In data set [1] the test system is SUDHL5. As to the kind of experiment: Antiproliferation assay (Assay 7), SUDHL5. The conditions noted are these: CellTiter-Glo, median, read-out: Antiproli SUDHL5 [M] (median) IC50. The format is cell-based. The procedure: (§1) Assessment of the Anti-Proliferative Effect of Compounds in Different Cell Lines
(§2) The impact of compounds on the proliferation of different cell lines was assessed using the CellTiter-Glo® Luminescent Cell Viability reagent from Promega (G7573).
(§3) In parallel, cells were plated in a reference (day 0) plate for time zero determination.
(§4) Rim wells were excluded. The cells were incubated for 72 hours in a humidified incubator at 37° C. The day 0 plate was measured by adding 30 μL/well of CTG solution (CellTiter-Glo® Luminescent Cell Viability reagent, Promega G7573) to time zero wells in the reference plate followed by a 10 minutes incubation and luminescence reading at 0.1 ms. using the PHERAstar FS microplate reader (BMG Labtech).
(§5) After 72 hours incubation, the treated plates were measured in the same way as the day 0 plate mentioned above.

The subject of data set [2] is SUDHL10. As to the kind of experiment: Induction of caspase-3/7 activity (Assay 4), SUDHL10. Conditions: caspase-3/7 induction, median. The class given is cell-based. The protocol:
(§6) Cellular Assays Assay 4 Induction of Caspase-3/7 Activity Upon Treatment of Cells with Selected Compounds
(§7) The BH3-domain of MCL-1 sequesters pro-apoptotic proteins, thereby inhibiting apoptosis. In contrast, MCL-1 inhibitors are expected to antagonize this effect leading to an increase in apoptosis, which can be determined by measuring the activity of caspase-3/7.
(§8) The activity of caspase-3/7 was determined in DLBCL (Diffuse large B-cell lymphoma) cell lines (SUDHL5 and SUDHL10) upon treatment with different compounds, using the Caspase-Glo® 3/7 reagent from Promega (G8092).
(§9) Rim wells were excluded. The cells were incubated for 3 hours in a humidified incubator at 37° C.
(§10) For the evaluation of the results, the background measured with “medium-only” was subtracted from all other values. […] The Bella DRC Master Sheet was used to calculate EC50s, with fixed C0=1 and CI=plateau/max induction for the reference compound.

For data set [3], the system named is SUDHL10. As to the kind of experiment: Induction of cytotoxicity (Assay 6), SUDHL10. The conditions noted are these: read-out: Cytotox SUDHL10 [M] (median) IC50, CellTiter-Glo, 5 hours, SUDHL10.
In data set [4] the test system is SUDHL5. Briefly: Induction of cytotoxicity (Assay 6), SUDHL5. The conditions noted are these: read-out: Cytotox SUDHL5 [M] (median) IC50, CellTiter-Glo, 5 hours, SUDHL5.
Data set [5] has as its system MV-4-11. As to the kind of experiment: Antiproliferation assay (Assay 7), MV-4-11. The format is cell-based. The conditions noted are these: CellTiter-Glo, several values per example. The procedure: as §1, §2, §3, §4, §5
The test system of data set [6] is SUDHL5. As to the kind of experiment: Induction of caspase-3/7 activity (Assay 4), SUDHL5. Conditions: caspase-3/7 induction, median. The class given is cell-based. The procedure:
as §6, §7, §8, §9, §10

Data set [7] relates to A2780. As to the kind of experiment: Antiproliferation assay (Assay 7), A2780. The format is cell-based. The conditions noted are these: CellTiter-Glo, several values per example. The procedure:
as §1, §2, §3, §4, §5

The target of data set [8] is MCL-1 (Homo sapiens (Human), UniProt Q07820, K194A/K197A/R201A). Briefly: Protein-protein interaction assay MCL-1/Noxa BH3 peptide (MCL-1 assay, TR-FRET). The class given is binding. The conditions noted are these: MBP-MCL-1 / Noxa BH3 peptide, median. The protocol:
Protein-Protein Interaction Assay: MCL-1/Noxa BH3 Peptide (MCL-1 Assay)
The dose-dependent inhibition by the compounds described in this invention of the interaction between MCL-1 and the BH3 domain of Noxa (both human) was determined using a steady state binding competition assay with time-resolved fluorescence energy transfer (TR-FRET) readout. For that purpose MCL-1 (amino acids 173-329, N-terminal fused to Maltose Binding Protein (MBP) SEQ ID 1) and a synthetic Noxa BH3-derived peptide of sequence Biotin-PEG2-PEG2-PAELEVE-Nva-ATQLRRFGDKLNFRQKLL-amide (SEQ ID 2) served as protein receptor and tracer ligand respectively. The MBP-MCL-1 was purchased from Beryllium (Bedford, Mass., USA). The expression and purification of this protein construct has been described elsewhere (DOI:10.1371/journal.pone.0125010). The Noxa BH3-derived peptide can be obtained from e.g. Biosyntan (Berlin, Germany).
In the assay 11 different concentrations of each compound (0.1 nM, 0.33 nM, 1.1 nM, 3.8 nM, 13 nM, 44 nM, 0.15 μM, 0.51 μM, 1.7 μM, 5.9 μM and 20 μM) were typically measured as duplicates in the same microtiter plate. For that, 100-fold concentrated DMSO solutions were prepared by serial dilutions (1:3.4) of a 2 mM stock solution in a clear, 384-well microtiter plate (Greiner Bio-One, Frickenhausen, Germany). From there, 50 nl were transferred in a dark test plate (Greiner Bio-One, Frickenhausen, Germany). The assay was initiated by addition of 2 μl of a 2.5-fold concentrated MBP-MCL-1 solution (usually for a 1 nM end concentration in 5 μl reaction volume) in aqueous assay buffer [50 mM Tris/HCl pH 7, 100 mM sodium chloride (NaCl), 50 mM potassium fluoride (KF), 0.005% Tween-20, 2 mM DTT, 0.1% bovine gamma globulin (BGG)] to the compounds in the assay plate. This was followed by a 10-minute incubation step at 22° C. for pre-equilibration of the putative complex between MBP-MCL-1 and the compounds. After that, 3 μl of a 1.67-fold concentrated solution (in assay buffer) consisting of Noxa BH3-derived peptide (1 nM end concentration) and TR-FRET detection reagents [1.67 nM anti-MBP-Eu cryptate and 1.67 nM streptavidin-XL665 (both from Cisbio Bioassays, Codolet, France)], were added.
The mixture was incubated in the dark for one hour at 22° C. and then overnight at 4° C. The formation of MCL-1/Noxa complexes was determined by measuring the resonance energy transfer of the anti-MBP-Eu-cryptate antibody to the streptavidin-XL665 present in the reaction. For that purpose, the fluorescence emission at 620 nm and 665 nm after excitation at 330-350 nm was measured in a TR-FRET measuring instrument, for instance a Rubystar or a Pherastar (both from BMG Lab Technologies, Offenburg, Germany) or a Viewlux (Perkin-Elmer). The ratio of the emission at 665 nm and at 622 nm was used as indicator of the amount of MCL-1/NOXA complexes present.
The resulting data (ratio) were normalized, taking 0% inhibition as the mean value of control measurements (usually 32 data points) where all reagents were included. In this case 50 nl DMSO were used instead of compounds. A 100% inhibition corresponded to the mean value of control measurements (usually 32 data points) where all reagents except MCL-1 were included. IC50 values were determined by regression analysis based on a 4 parameter equation (minimum, maximum, IC50, Hill; Y=Max+(Min−Max)/(1+(X/IC50)^HiII) using the Screener Software (Genedata).

The conditions of data set [9]: amine bond.
The mark [10] stands for this setting: Homo sapiens, MV4-11, 72 h, read-out: Antiproli MV-4-11 [M] IC50.
[11] abbreviates: Homo sapiens, A2780, 72 h, read-out: Antiproli A2780 [M] IC50.

Counter-ions that a name gives are not always drawn. Like-named read-outs stand apart in the source and are kept apart here.

For eight molecules, IC50, EC50 and ring closure, yield of all isomers results are on record in patent US11401278B2, “Macrocyclic indole derivatives” (The Broad Institute, Inc., priority 2017, dated 2022).

MCL-1, sequence (Q07820 whole entry K194A/K197A/R201A, looked up): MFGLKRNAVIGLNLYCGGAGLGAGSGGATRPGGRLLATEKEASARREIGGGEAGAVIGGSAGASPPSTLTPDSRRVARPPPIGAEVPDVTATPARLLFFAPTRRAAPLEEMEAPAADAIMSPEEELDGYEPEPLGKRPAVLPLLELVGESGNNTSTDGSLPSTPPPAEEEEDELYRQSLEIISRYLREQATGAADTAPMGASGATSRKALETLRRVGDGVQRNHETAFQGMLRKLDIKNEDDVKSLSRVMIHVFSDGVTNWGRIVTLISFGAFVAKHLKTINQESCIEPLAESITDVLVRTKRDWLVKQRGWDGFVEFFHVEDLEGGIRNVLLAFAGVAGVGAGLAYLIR

As for `Cc1c2c(nn1C)CN(C)S(=O)(=O)CCCC1C(C(=O)O)=C(CCCOc3cccc4ccccc34)c3cccc-2c31` (racemic) [Example 10, (rac)-2,3,14-Trimethyl-7-[3-(1-naphthyloxy)propyl]-11,12,14,15-tetrahydro-2H,10H-pyrazolo[3′,4′:4,5][1,2,8]thiadiazacycloundecino[6,7,8-hi]indole-8-carboxylic acid 13,13-dioxide], the 50% inhibitory concentration (IC50) is 3.8e-06 M in [1] (Homo sapiens, SU-DHL-5, 72 h); 1.2e-05 M in data set [3] (Homo sapiens, SU-DHL10, 5 h); 3.8e-06 M in data set [4] (Homo sapiens, SU-DHL-5, 5 h); 1.28e-05 M in data set [5] (72 hours, read-out: Antiproli MV-4-11 [M] IC50); 1.54e-05 M in [5] (setting [10]); over 3.3e-05 M in data set [7] (72 hours, read-out: Antiproli A2780 [M] IC50). For the same molecule, the IC50 in [7] (setting [11]) turned out to be 1.68e-05 M; in [8], 0.0074 µM. Further, the EC50 in data set [2] (Homo sapiens, SU-DHL10, 3 h) came to 14 µM; in [6] (Homo sapiens, SU-DHL-5, 3 h), 3.1 µM.

Take `Cc1c2c(nn1C)CN(CCN1CCOCC1)S(=O)(=O)CCCn1c(C(=O)O)c(CCCOc3cccc4ccccc34)c3cccc-2c31` (single isomer, unassigned; enantiomer 1) [Example 2, 2,3-Dimethyl-14-[2-(morpholin-4-yl)ethyl]-7-{3-[(naphthalen-1-yl)oxy]propyl}-13,13-dioxo-10,11,12,13,14,15-hexahydro-2H-13λ^6-pyrazolo[3′,4′:4,5][1,2,8]thiadiazacycloundecino-[6,7,8-hi]indole-8-carboxylic acid-N-ethylethanamine salt (Enantiomer 1)]: the concentration for half-maximal inhibition (IC50) in [1] (72 hours) is 4.4e-06 M; in data set [3] it was 9.8e-06 M; in data set [4], 3.5e-06 M; in data set [5] (72 hours, listed as 02, read-out: Antiproli MV-4-11 [M] IC50), 8.63e-06 M; in [5] (setting [10]), 1.17e-05 M; in [7] (72 hours, listed as 02, read-out: Antiproli A2780 [M] IC50), over 3.3e-05 M. Besides, the 50% inhibitory concentration (IC50) stood at 2.66e-05 M in data set [7] (setting [11]) and 0.0034 µM in data set [8]. The half-maximal effective concentration (EC50) in data set [2] (3 hours) turned out to be 11 µM; in [6] (3 hours), 3.9 µM.

In data set [9] (from CCOC(=O)c1[nH]c2c(-c3c(C(CCN(C)S(=O)(=O)CCCCl)N4CCOCC4)nn(C)c3C)c(Cl)ccc2c1CCCOc1cccc2cc(F)ccc12, Cs2CO3, acetonitrile, 40.7 mM, 60.0 °C, 48.0 h), `CCOC(=O)c1c(CCCOc2cccc3cc(F)ccc23)c2ccc(Cl)c3c2n1CCCS(=O)(=O)N(C)CCC(N1CCOCC1)c1nn(C)c(C)c1-3` (centres unmarked) gave a ring closure, yield of all isomers of 63.7%.

`CCOC(=O)c1c(CCCOc2cccc3cc(F)ccc23)c2ccc(Cl)c3c2n1CCCS(=O)(=O)N(C)C(CCN1CCOCC1)c1nn(C)c(CC)c1-3` (racemic) showed a ring closure, yield of all isomers in data set [9] (from CCOC(=O)c1[nH]c2c(-c3c(C(CCN4CCOCC4)N(C)S(=O)(=O)CCCCl)nn(C)c3CC)c(Cl)ccc2c1CCCOc1cccc2cc(F)ccc12, cesium carbonate, acetonitrile, 49.5 mM, 60.0 °C, 48.0 h) of 44.9%.

`CCOC(=O)c1c(CCCOc2cccc3ccccc23)c2cccc3c2n1CCCS(=O)(=O)N(CCN1CCCCC1)Cc1nn(C)c(CC)c1-3` came in with a ring closure, yield of all isomers in data set [9] (from CCOC(=O)c1[nH]c2c(-c3c(CN(CCN4CCCCC4)S(=O)(=O)CCCCl)nn(C)c3CC)cccc2c1CCCOc1cccc2ccccc12, NaH, DMF, 25.0 mM, 60.0 °C, 21.0 h) of 69%.

`CCOC(=O)c1c(CCCOc2cccc3cc(F)ccc23)c2ccc(Cl)c3c2n1CCCS(=O)(=O)N(CCN1CCOCC1)Cc1nn(C)c(CC)c1-3` returned a ring closure, yield of all isomers in data set [9] (from CCOC(=O)c1[nH]c2c(-c3c(CN(CCN4CCOCC4)S(=O)(=O)CCCCl)nn(C)c3CC)c(Cl)ccc2c1CCCOc1cccc2cc(F)ccc12, cesium carbonate, acetonitrile, 50.3 mM, 40.0 °C, 48.0 h) of 90.3%.

For `CCOC(=O)c1c(CCCOc2cccc3cc(F)ccc23)c2ccc(Cl)c3c2n1CCCS(=O)(=O)N(Cc1ccc(OC)cc1OC)Cc1nn(C)c(C)c1-3`, the ring closure, yield of all isomers in data set [9] (from CCOC(=O)c1[nH]c2c(-c3c(CN(Cc4ccc(OC)cc4OC)S(=O)(=O)CCCCl)nn(C)c3C)c(Cl)ccc2c1CCCOc1cccc2cc(F)ccc12, cesium carbonate, acetonitrile, 51.5 mM, 60.0 °C, 16.0 h) is 48%.

On to `CCOC(=O)c1c(CCCOc2cccc3cc(F)ccc23)c2ccc(Cl)c3c2n1CCCS(=O)(=O)N(C)C(CCC1CCOCC1)c1nn(C)c(CC)c1-3` (racemic), for which, in data set [9] (from CCOC(=O)c1[nH]c2c(-c3c(C(CCC4CCOCC4)N(C)S(=O)(=O)CCCCl)nn(C)c3CC)c(Cl)ccc2c1CCCOc1cccc2cc(F)ccc12, cesium carbonate, acetonitrile, 34.4 mM, 60.0 °C, 48.0 h), the ring closure, yield of all isomers is 77%.
